What was measured:
Assay in all cases: NCI 60 cell line single dose screen (SRB)
Assay type in all cases: cell-based
SK-OV-3 = conditions: Homo sapiens; SK-OV-3 (ovarian cancer), single dose 10^−5 M, 48 h; read-out: Growth inhibition percentage
Outline: (§1)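 Cells were plated and grown 24 h at 37 °C, 5% CO2 before compound addition from DMSO stock, then exposed 48 h. Adherent cells were fixed with cold TCA (final 10%) and suspension cells with 16% TCA. SRB-stained protein was read at 515 nm and percent growth was calculated against time-zero and untreated plates.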

NCI-H460 = conditions: Homo sapiens; NCI-H460 (non-small cell lung cancer), single dose 10^−5 M, 48 h; read-out: Growth inhibition percentage
Outline: as §1

SF-593 = conditions: Homo sapiens, SF-593 (CNS cancer), single dose 10^−5 M, 48 h, read-out: Growth inhibition percentage
Outline: as §1

HOP-62 = conditions: Homo sapiens; HOP-62 (non-small cell lung cancer), single dose 10^−5 M, 48 h; read-out: Growth inhibition percentage
Outline: as §1

OVCAR-5 = conditions: Homo sapiens; OVCAR-5 (ovarian cancer), single dose 10^−5 M, 48 h; read-out: Growth inhibition percentage
Outline: as §1

HCT-15 = conditions: Homo sapiens; HCT-15 (colon cancer), single dose 10^−5 M, 48 h; read-out: Growth inhibition percentage
Outline: as §1

PC-3 = conditions: Homo sapiens; PC-3 (prostate cancer), single dose 10^−5 M, 48 h; read-out: Growth inhibition percentage
Outline: as §1

MOLT-4 = conditions: Homo sapiens; MOLT-4 (leukemia), single dose 10^−5 M, 48 h; read-out: Growth inhibition percentage
Outline: as §1

SK-MEL-5 = conditions: Homo sapiens; SK-MEL-5 (melanoma), single dose 10^−5 M, 48 h; read-out: Growth inhibition percentage
Outline: as §1

SR = conditions: Homo sapiens; SR (leukemia), single dose 10^−5 M, 48 h; read-out: Growth inhibition percentage
Outline: as §1

OVCAR-4 = conditions: Homo sapiens; OVCAR-4 (ovarian cancer), single dose 10^−5 M, 48 h; read-out: Growth inhibition percentage
Outline: as §1

NCI-H23 = conditions: Homo sapiens; NCI-H23 (non-small cell lung cancer), single dose 10^−5 M, 48 h; read-out: Growth inhibition percentage
Outline: as §1

LOX IMVI = conditions: Homo sapiens; LOX IMVI (melanoma), single dose 10^−5 M, 48 h; read-out: Growth inhibition percentage
Outline: as §1

KM12 = conditions: Homo sapiens; KM12 (colon cancer), single dose 10^−5 M, 48 h; read-out: Growth inhibition percentage
Outline: as §1

SNB-19 = conditions: Homo sapiens; SNB-19 (CNS cancer), single dose 10^−5 M, 48 h; read-out: Growth inhibition percentage
Outline: as §1

MDA-MB-231/ATCC = conditions: Homo sapiens; MDA-MB-231/ATCC (breast cancer), single dose 10^−5 M, 48 h; read-out: Growth inhibition percentage
Outline: as §1

BT-549 = conditions: Homo sapiens; BT-549 (breast cancer), single dose 10^−5 M, 48 h; read-out: Growth inhibition percentage
Outline: as §1

SN12C = conditions: Homo sapiens; SN12C (renal cancer), single dose 10^−5 M, 48 h; read-out: Growth inhibition percentage
Outline: as §1

RXF 393 = conditions: Homo sapiens; RXF 393 (renal cancer), single dose 10^−5 M, 48 h; read-out: Growth inhibition percentage
Outline: as §1

NCI-H226 = conditions: Homo sapiens; NCI-H226 (non-small cell lung cancer), single dose 10^−5 M, 48 h; read-out: Growth inhibition percentage
Outline: as §1

HS 578T = conditions: Homo sapiens; HS 578T (breast cancer), single dose 10^−5 M, 48 h; read-out: Growth inhibition percentage
Outline: as §1

| SMILES | inhibition at 10 µM (SK-OV-3) [%] | inhibition at 10 µM (NCI-H460) [%] | inhibition at 10 µM (SF-593) [%] | inhibition at 10 µM (HOP-62) [%] | inhibition at 10 µM (OVCAR-5) [%] | inhibition at 10 µM (HCT-15) [%] | inhibition at 10 µM (PC-3) [%] | inhibition at 10 µM (MOLT-4) [%] | inhibition at 10 µM (SK-MEL-5) [%] | inhibition at 10 µM (SR) [%] | inhibition at 10 µM (OVCAR-4) [%] | inhibition at 10 µM (NCI-H23) [%] | inhibition at 10 µM (LOX IMVI) [%] | inhibition at 10 µM (KM12) [%] | inhibition at 10 µM (SNB-19) [%] | inhibition at 10 µM (MDA-MB-231/ATCC) [%] | inhibition at 10 µM (BT-549) [%] | inhibition at 10 µM (SN12C) [%] | inhibition at 10 µM (RXF 393) [%] | inhibition at 10 µM (NCI-H226) [%] | also measured |
| --- | --- | --- | --- | --- | --- | --- | --- | --- | --- | --- | --- | --- | --- | --- | --- | --- | --- | --- | --- | --- | --- |
| Cc1nn(-c2ccc(F)cc2)c2nc[nH]c(=O)c12 [Compound 3, 1–(4-Fluorophenyl)-3-methyl-1H-pyrazolo[3,4-d]pyrimidin-4(5H)-one] | -2.82 | -9.62 | -0.99 | -6.53 | -10.4 | -6.88 | 1.46 | 3.3 | 0.31 | -1.58 | -8.19 | 4.09 | 2.19 | 1.48 | -3.69 | -9.78 | -3.59 | -2.5 | -11.4 | -9.27 | inhibition at 10 µM (HS 578T): 0.13% |
| Cc1nn(-c2ccc(F)cc2)c2ncnc(N)c12 [Compound 4, 1–(4-Fluorophenyl)-3-methyl-1H-pyrazolo[3,4-d]pyrimidin-4-amine] | -5.01 | -9.3 | -1.06 | -8.24 | -4.61 | -4.62 | 1.03 | 0.58 | 2 | 3.35 | -4.38 | 4.73 | 1.75 | 3.5 | -9.19 | -10.8 | 9.79 | -1.4 | -17.3 | -7.4 | inhibition at 10 µM (HS 578T): -4.94% |
| Cc1nn(-c2ccc(F)cc2)c2nc(N)nc(N)c12 [Compound 5, 1–(4-Fluorophenyl)-3-methyl-1H-pyrazolo[3,4-d]pyrimidine-4,6-diamine] | -6.26 | -18.8 | 2.81 | -8.35 | -1.61 | -3.69 | 3.59 | -0.48 | 0.86 | -1.68 | 1.28 | 11.8 | 2.19 | 1.24 | -7.94 | -9.11 | -17.4 | -2.74 | -13 | -8.08 | inhibition at 10 µM (HS 578T): -3.27% |
| Cc1nn(-c2ccc(F)cc2)c2ncnc(Cl)c12 [Compound 6, 4-Chloro-1–(4-fluorophenyl)-3-methyl-1H-pyrazolo[3,4-d]pyrimidine] | 13.7 | -0.07 | -7.81 | 15.4 | -12.3 | 1.32 | 14.8 | 13.8 | 5.94 | 14.4 | -0.8 | 7.86 | 6.64 | 0.99 | 7.79 | 10.8 | -11.5 | 1.02 | -3.61 | 15.1 | inhibition at 10 µM (HS 578T): 4.54% |
| Cc1ccc(Nc2ncnc3c2c(C)nn3-c2ccc(F)cc2)cc1 [Compound 7c, 1–(4-Fluorophenyl)-3-methyl-N-(p-tolyl)-1H-pyrazolo[3,4-d]-pyrimidin-4-amine] | -16.7 | -9.33 | -1.94 | -14.5 | -0.5 | -0.49 | 7.23 | 1.83 | -3.74 | 6.02 | -3.91 | 4.63 | -0.99 | -1.11 | 7.21 | -2.67 | -8.83 | 48.4 | -13.7 | -10.2 | inhibition at 10 µM (HS 578T): 0.7% |
| Cc1nn(-c2ccc(F)cc2)c2ncnc(Nc3ccc(F)c(Cl)c3)c12 [Compound 7d, N-(3-Chloro-4-fluorophenyl)-1–(4-fluorophenyl)-3-methyl-1H-pyrazolo[3,4-d] pyrimidin-4-amine] | 13.9 | 58.5 | 22.6 | 38.7 | 4.92 | 2.75 | 17.2 | 4.27 | -0.44 | 25.4 | 53.1 | 7.53 | 8.68 | 1.96 | 20.4 | 14.2 | -4.84 | 21.5 | -0.39 | 62.9 | inhibition at 10 µM (HS 578T): 21.5% |
| Cc1nn(-c2ccc(F)cc2)c2ncnc(N3CCOCC3)c12 [Compound 8a, 1–(4-Fluorophenyl)-3-methyl-4-morpholino-1H-pyrazolo[3,4-d]pyrimidine] | -7.07 | -8.23 | -8.46 | -13.6 | -3.95 | -2.04 | 5.06 | 5.79 | -0.67 | 1.18 | -10.7 | 0.28 | -2.33 | 0.04 | 5.14 | -10.4 | 3.96 | 1.12 | -15.7 | -8.48 | inhibition at 10 µM (HS 578T): -4.78% |
| Cc1nn(-c2ccc(F)cc2)c2ncnc(N3CCN(c4ccc(Cl)cc4)CC3)c12 [Compound 8c, 4–(4-(4-Chlorophenyl)piperazin-1-yl)-1–(4-fluorophenyl)-3-methyl-1H-pyrazolo[3,4-d]pyrimidine] | 12.6 | -4.35 | 3.89 | 4.05 | -2.91 | -8.49 | 11.3 | 7.19 | 5.22 | 11 | -1.9 | 20.7 | 4.93 | 2.24 | -4.77 | 7.92 | -4.23 | 13.3 | -16.5 | 7.59 | inhibition at 10 µM (HS 578T): 3.74% |

Source: publication PMC6352943, “Novel pyrazolo[3,4-d]pyrimidines: design, synthesis, anticancer activity, dual EGFR/ErbB2 receptor tyrosine kinases inhibitory activity, effects on cell cycle profile and caspase-3-mediated apoptosis” (Journal of Enzyme Inhibition and Medicinal Chemistry, 2019)
